Measured values reported in PubChem BioAssay AID248 (DTP/NCI, 2004).
Several values for one entry are separate records, joined by “and”; a condition that tells them apart may be missing. Identical values can stand only once. Toxic doses and inconclusive results are not listed. Rule as the data show it: active = T/C of 150% or more; inactive = T/C below 125%.

Tested on: L1210 leukemia ip in BDF1 mice, survival T/C
Experiment: NCI In Vivo Anticancer Drug Screen. Data for tumor model L1210 Leukemia (intraperitoneal) in B6D2F1 (BDF1) mice
Settings: endpoint: mean survival time, higher = longer survival
Outline: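 Each compound was tested against a transplantable tumor grown in mice. The endpoint was survival, with treated animals benchmarked against vehicle controls as a simple ratio.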

[1] = dose: 200.0 mg/kg/injection, schedule: Q01DX001 (ip), vehicle: saline
[2] = dose: 400.0 mg/kg/injection, schedule: Q01DX001 (ip), vehicle: saline
[3] = dose: 100.0 mg/kg/injection, schedule: Q04DX003 (ip), vehicle: Klucel (hydroxypropylcellulose) (HPC)
[4] = dose: 200.0 mg/kg/injection, schedule: Q04DX003 (ip), vehicle: Klucel (hydroxypropylcellulose) (HPC)
[5] = dose: 400.0 mg/kg/injection, schedule: Q04DX003 (ip), vehicle: Klucel (hydroxypropylcellulose) (HPC)
[6] = dose: 100.0 mg/kg/injection, schedule: Q01DX009 (ip), vehicle: Klucel (hydroxypropylcellulose) (HPC)
[7] = dose: 200.0 mg/kg/injection, schedule: Q01DX009 (ip), vehicle: Klucel (hydroxypropylcellulose) (HPC)
[8] = dose: 400.0 mg/kg/injection, schedule: Q01DX009 (ip), vehicle: Klucel (hydroxypropylcellulose) (HPC)
[9] = dose: 50.0 mg/kg/injection, schedule: Q01DX001 (ip), vehicle: saline
[10] = dose: 100.0 mg/kg/injection, schedule: Q01DX001 (ip), vehicle: saline
[11] = dose: 100.0 mg/kg/injection, schedule: Q04DX002 (ip), vehicle: saline with Tween-80
[12] = dose: 100.0 mg/kg/injection, schedule: Q04DX003 (ip), vehicle: saline with Tween-80
[13] = dose: 200.0 mg/kg/injection, schedule: Q04DX002 (ip), vehicle: saline with Tween-80
[14] = dose: 200.0 mg/kg/injection, schedule: Q04DX003 (ip), vehicle: saline with Tween-80
[15] = dose: 400.0 mg/kg/injection, schedule: Q04DX002 (ip), vehicle: saline with Tween-80
[16] = dose: 400.0 mg/kg/injection, schedule: Q04DX003 (ip), vehicle: saline with Tween-80
[17] = dose: 25.0 mg/kg/injection, schedule: Q04DX003 (ip), vehicle: saline with Tween-80
[18] = dose: 100.0 mg/kg/injection, schedule: Q01DX001 (ip), vehicle: saline with Tween-80
[19] = dose: 200.0 mg/kg/injection, schedule: Q01DX001 (ip), vehicle: saline with Tween-80
[20] = dose: 100.0 mg/kg/injection, schedule: Q04DX002 (ip), vehicle: Klucel (hydroxypropylcellulose) (HPC)
[21] = dose: 400.0 mg/kg/injection, schedule: Q04DX002 (ip), vehicle: Klucel (hydroxypropylcellulose) (HPC)

Measured: T/C

Cc1cccc(N(CCOC(=O)Nc2cccc(Cl)c2)CCOC(=O)Nc2cccc(Cl)c2)c1
inactive: [1] 100 % of control | [2] 89 % of control

CCNC(=O)C(=O)c1ccccc1NC(C)=O
inactive: [3] 99 % of control | [4] 100 % of control | [5] 96 % of control

CCCCCC[CH2][Sn]([CH2]CCCCCC)([CH2]CCCCCC)[CH2]CCCCCC
inactive: [6] 103 % of control | [7] 101 % of control | [8] 101 % of control

CC(=O)NS(=O)(=O)c1ccc(N=Cc2ccccc2O)cc1
inactive: [6] 101 % of control | [7] 94 % of control | [8] 100 % of control

C=CCNC(=S)N(C)Cc1ccccc1Cl
inactive: [6] 90 % of control | [7] 98 % of control

Cc1[nH]c2ccccc2c1C(Cc1ccccc1N)c1c(C)[nH]c2ccccc12
inactive: [9] 101 % of control | [10] 104 % of control | [1] 101 % of control | [2] 104 % of control

O=C(CI)Nc1cc(C(F)(F)F)ccc1Cl
inactive: dose: 25.0 mg/kg/injection, schedule: Q04DX003 (ip), vehicle: Klucel (hydroxypropylcellulose) (HPC) 102 % of control | dose: 50.0 mg/kg/injection, schedule: Q04DX003 (ip), vehicle: Klucel (hydroxypropylcellulose) (HPC) 94 % of control

CC(C)=NN
inactive: [10] 105 % of control | [1] 98 % of control | [2] 100 % of control

c1ccc(C(c2ccccc2)C2CCCCC2)cc1
inactive: [3] 87 % of control | [4] 90 % of control

O=C(Nc1cccc([N+](=O)[O-])c1)Oc1ccc(-c2ccccc2)cc1
inactive: dose: 100.0 mg/kg/injection, schedule: Q01DX009 (ip), vehicle: saline with Tween-80 101 % of control and 103 % of control | [11] 97 % of control and 111 % of control | [12] 93 % of control | dose: 200.0 mg/kg/injection, schedule: Q01DX009 (ip), vehicle: saline with Tween-80 100 % of control and 101 % of control | [13] 96 % of control and 104 % of control | [14] 93 % of control | dose: 400.0 mg/kg/injection, schedule: Q01DX009 (ip), vehicle: saline with Tween-80 94 % of control | [15] 93 % of control and 103 % of control | [16] 102 % of control

C[n+]1ccccc1/C=C/c1ccnc2c(O)cccc12
inactive: dose: 75.0 mg/kg/injection, schedule: Q01DX001 (ip), vehicle: carboxymethylcellulose (CMC) 107 % of control | dose: 150.0 mg/kg/injection, schedule: Q01DX001 (ip), vehicle: carboxymethylcellulose (CMC) 102 % of control

C[P+](c1ccccc1)(c1ccc(Cl)cc1)c1ccc(Cl)cc1
inactive: dose: 25.0 mg/kg/injection, schedule: Q04DX002 (ip), vehicle: saline 100 % of control | dose: 50.0 mg/kg/injection, schedule: Q04DX002 (ip), vehicle: saline 95 % of control | [11] 116 % of control

O=C(c1ccccc1)C1C(c2ccccc2)OP(c2ccccc2)(c2ccccc2)(c2ccccc2)C1c1ccccc1 (centres undefined)
inactive: dose: 6.25 mg/kg/injection, schedule: Q04DX003 (ip), vehicle: saline with Tween-80 102 % of control | dose: 12.5 mg/kg/injection, schedule: Q01DX009 (ip), vehicle: saline with Tween-80 97 % of control | [17] 94 % of control

Clc1ccccc1C[P+](c1ccccc1)(c1ccccc1)c1ccccc1
inactive: dose: 12.5 mg/kg/injection, schedule: Q01DX001 (ip), vehicle: saline 92 % of control | dose: 25.0 mg/kg/injection, schedule: Q01DX001 (ip), vehicle: saline 106 % of control | [9] 100 % of control

O=C(OCC1OCC(OC(=O)c2ccccc2)C1OC(=O)c1ccccc1)c1ccccc1 (centres undefined)
inactive: [18] 92 % of control | [19] 110 % of control

CN=C(N/N=C(C)\C=N\NC(=NC)N(C)C)N(C)C
inactive: dose: 15.0 mg/kg/injection, schedule: Q01DX Z (ip), vehicle: saline 90 % of control | dose: 30.0 mg/kg/injection, schedule: Q01DX Z (ip), vehicle: saline 106 % of control | dose: 60.0 mg/kg/injection, schedule: Q01DX Z (ip), vehicle: saline 95 % of control and 98 % of control | dose: 120.0 mg/kg/injection, schedule: Q01DX Z (ip), vehicle: saline 97 % of control and 101 % of control | dose: 120.0 mg/kg/injection, schedule: Q01DX Z (oral), vehicle: saline 96 % of control | dose: 240.0 mg/kg/injection, schedule: Q01DX Z (ip), vehicle: saline 95 % of control | dose: 240.0 mg/kg/injection, schedule: Q01DX Z (oral), vehicle: saline 91 % of control | dose: 960.0 mg/kg/injection, schedule: Q01DX Z (oral), vehicle: saline 94 % of control

CCOC(=O)CCCCN(C(=O)OCc1ccccc1)N(C)C(=O)OCc1ccccc1
inactive: [17] 115 % of control | dose: 50.0 mg/kg/injection, schedule: Q04DX003 (ip), vehicle: saline with Tween-80 95 % of control | [12] 101 % of control | [14] 103 % of control | [16] 97 % of control

Oc1cc(Br)c(O)c(Br)c1
inactive: dose: 25.0 mg/kg/injection, schedule: Q04DX002 (ip), vehicle: Klucel (hydroxypropylcellulose) (HPC) 109 % of control | dose: 50.0 mg/kg/injection, schedule: Q04DX002 (ip), vehicle: Klucel (hydroxypropylcellulose) (HPC) 102 % of control | [20] 97 % of control | [21] 90 % of control

CCS(=O)(=O)/C=C/c1ccc(NC(C)=O)cc1
inactive: [11] 122 % of control | [13] 98 % of control | [15] 91 % of control

COc1nc(OC)c(OP(=O)(OC)OC)c(OC)n1
inactive: [9] 95 % of control | [10] 98 % of control | [1] 89 % of control | [2] 95 % of control

CCCCCS(=O)(=O)N1CCCC1
inactive: [20] 107 % of control | dose: 200.0 mg/kg/injection, schedule: Q04DX002 (ip), vehicle: Klucel (hydroxypropylcellulose) (HPC) 103 % of control | [21] 111 % of control

Cc1cccc(C)c1NC(=O)Nc1ccc2c(c1)OCO2
inactive: [3] 93 % of control | [4] 92 % of control | [5] 88 % of control

Cc1ccc(C(=O)O)cc1-n1c(-c2ccc(Cl)cc2)nnc1-c1ccc(Br)cc1
inactive: dose: 50.0 mg/kg/injection, schedule: Q01DX009 (ip), vehicle: Klucel (hydroxypropylcellulose) (HPC) 92 % of control | dose: 100.0 mg/kg/injection, schedule: Q01DX001 (ip), vehicle: Klucel (hydroxypropylcellulose) (HPC) 97 % of control | [6] 93 % of control | dose: 200.0 mg/kg/injection, schedule: Q01DX001 (ip), vehicle: Klucel (hydroxypropylcellulose) (HPC) 96 % of control | [7] 93 % of control

C1CCC(CCC(CCCC2CCCC2)CCCC2CCCC2)CC1
inactive: [18] 97 % of control | [19] 92 % of control | dose: 400.0 mg/kg/injection, schedule: Q01DX001 (ip), vehicle: saline with Tween-80 101 % of control
